Assay results published in PubChem BioAssay (NCI).
Where “and” joins values, the source holds several entries; their conditions need not be identical. Equal entries are not always repeated.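 Briefly, cells in 96-well plates were exposed to five compound concentrations for 48 h, and endpoints were estimated by linear interpolation. GI50 is the concentration that inhibits growth by half. At the TGI there is no net growth.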

Columns and labels:
Assay in all cases: DTP human tumour cell line panel, 48 h
[1] = test system: BT-549 breast
[2] = test system: LOX IMVI melanoma
[3] = test system: MDA-MB-231 breast
[4] = test system: NCI-H23 lung
[5] = test system: NCI-H460 lung
[6] = test system: OVCAR-3 ovarian
[7] = test system: OVCAR-5 ovarian
[8] = test system: SK-MEL-5 melanoma
[9] = test system: TK-10 renal
[10] = test system: UO-31 renal

Row | Compound | TGI [1] [µM] | TGI [2] | TGI [3] [µM] | TGI [4] | TGI [5] | TGI [6] | TGI [7] | TGI [8] | TGI [9] [µM] | TGI [10] | GI50 [2] [µM] | GI50 [3] [µM] | GI50 [4] [µM] | GI50 [5] | GI50 [6] | GI50 [7] [µM] | GI50 [8] [µM] | GI50 [9] [µM] | GI50 [10] [µM]
1 | O=S1(=O)NC(=NCc2c[nH]c3ccccc23)N(c2ccccc2)c2ccncc21 | > 100 | > 100 µM | > 100 | > 100 µM | > 100 µM | > 100 µM | > 100 µM | > 100 µM | > 100 | > 100 µM |  |  |  |  |  |  |  |  | 
2 | CCCNC1=C2CC(C)CC(OC)[C@@H](O)[C@H](C)/C=C(\C)C(OC(N)=O)C(OC)/C=C\C=C(/C)C(=O)NC(=CC1=O)C2=O (stereo not given in full) | 42.1 | 0.614 µM | 7.47 | 23 µM | 29.4 µM | 28.8 µM |  | 18.3 µM | > 100 | 32.2 µM | 0.0466 | 3.36 | 0.0639 | 0.0541 µM | 0.613 µM | 13.3 | 0.0343 | 11.6 | 0.558
3 | COc1c(C)c(C/C=C(\C)CCCCO[Si](c2ccccc2)(c2ccccc2)C(C)(C)C)c(OC)c(OC)c1OC | > 46.4 | 58.3 µM | > 100 | 38.7 µM | 25 µM | > 46.4 µM | > 46.4 µM | 38.6 µM | > 31.6 | 19.4 µM |  |  |  |  |  |  |  |  | 
4 | Nc1cccc2cc(Cl)cnc12 | > 100 | > 100 µM | > 100 | > 100 µM | > 100 µM | > 100 µM | > 100 µM | > 100 µM | > 100 | > 100 µM |  |  |  |  |  |  |  |  | 
5 | CCOC(=O)C(NC(C)=O)(Nc1ccc(F)cc1)C(F)(F)F (stereo not given) | > 100 | > 100 µM | > 100 | > 100 µM | > 100 µM | > 100 µM | > 100 µM | > 100 µM | > 100 | > 100 µM |  |  |  |  |  |  |  |  | 
6 | COC(=O)c1cc2c(n1S(=O)(=O)c1ccc(C)cc1)C(=O)C(=O)c1[nH]cc(C(=O)OCc3ccccc3)c1-2 | 0.334 | 0.176 µM | 0.168 | 0.211 µM | 2.83 µM | 0.0913 µM | 1.02 µM | 0.064 µM | 1.51 | 0.685 µM |  |  |  |  |  |  |  |  | 
7 | Cc1cccc(/C=N/NC(=S)Nc2ccccc2)n1 | 75 | 21.4 µM | > 26.1 | > 72.7 µM | 9.13 µM | 13.6 µM | > 100 µM | > 22.5 µM | > 95.3 | > 31.2 µM |  |  |  |  |  |  |  |  | 
8 | O=C(O)CN(CC(=O)O)C1CCCCC1N(CC(=O)O)CC(=O)NCCN=C=S (stereo not given) | > 100 | > 100 µM | > 100 | > 100 µM | > 100 µM | > 100 µM | > 100 µM | > 100 µM | > 100 | > 100 µM |  |  |  |  |  |  |  |  | 
9 | COc1cc(/C=C2\S/C(=N/Nc3nc(-c4ccc(Br)cc4)cs3)NC2=O)cc(OC)c1OC | 33.8 | 33.2 µM | 47.6 | 25.7 µM | 37.4 µM | 30.3 µM | 83.1 µM | 20.2 µM | 36.6 | 16.7 µM |  |  |  |  |  |  |  |  | 
10 | CC(C)/C(Cl)=N\OC(=O)Nc1ccc(S(N)(=O)=O)cc1 | 21.3 | 7 µM | 25.9 | 37.8 µM | 41.6 µM | 28.2 µM | 33.8 µM | 29.4 µM | 31.8 | 30.2 µM |  |  |  |  |  |  |  |  | 
11 | CC[C@@]1(C[C@H]2C[C@@]3(C(=O)OC)c4[nH]c5ccccc5c4CCN3C2=O)COC2(CCCCC2)O1 | > 100 | > 100 µM | > 100 | > 100 µM | > 100 µM | > 100 µM | > 100 µM | 41.2 µM | > 100 | > 100 µM |  |  |  |  |  |  |  |  | 
12 | CNC(=O)OCC1=C(COC(=O)NC)C(C)N(c2ccc(OC)cc2)C1 (stereo not given) | > 100 | > 100 µM | > 100 | > 100 µM | > 100 µM | > 100 µM | > 100 µM | > 100 µM | 73 | > 100 µM |  |  |  |  |  |  |  |  | 
13 | O=C(CCC(=O)c1ccc(Cl)cc1)NO | > 100 | > 100 µM | > 100 | > 100 µM | > 100 µM | > 100 µM | > 100 µM | > 100 µM | > 100 | > 100 µM |  |  |  |  |  |  |  |  | 
14 | COc1ccc(CNc2nc(NCc3ccc(OC)c(OC)c3)nc(NC3CCCCC3)n2)cc1 | > 100 | > 100 µM | > 100 | 52.2 µM | > 100 µM | > 100 µM | > 100 µM | 7.41 µM | > 100 | > 100 µM |  |  |  |  |  |  |  |  | 
15 | Clc1ccc(/C=C/c2nc3ccccc3s2)cc1Cl | > 100 | 3.12 µM | > 100 | > 100 µM | > 100 µM | > 100 µM | > 100 µM | > 100 µM | > 100 | 56 µM |  |  |  |  |  |  |  |  | 
16 | CC(=O)O[C@H]1C(=O)[C@]2(C)[C@@H](OC(=O)OCCC(O)CO)C[C@H]3OC[C@@]3(OC(C)=O)[C@H]2[C@H](OC(=O)c2ccccc2)[C@]2(O)C[C@H](OC(=O)[C@H](O)[C@@H](NC(=O)c3ccccc3)c3ccccc3)C(C)=C1C2(C)C (stereo not given in full) | 15.9 | 20.4 µM | 3.7 | 21.7 µM | 2.05 µM | 0.0932 µM | > 36.6 µM | 13.1 µM | > 61.2 | > 100 µM |  |  |  |  |  |  |  |  | 

Row | Compound | TGI [1] [µM] | TGI [2] | TGI [3] [µM] | TGI [4] | TGI [5] | TGI [6] | TGI [7] | TGI [8] | TGI [9] [µM] | TGI [10] | GI50 [2] [µM] | GI50 [3] [µM] | GI50 [4] [µM] | GI50 [5] | GI50 [6] | GI50 [7] [µM] | GI50 [8] [µM] | GI50 [9] [µM] | GI50 [10] [µM]
17 | CN1CCN([C@H]2C[C@H]3[C@@H]4CC=C5C[C@@H](O)CC[C@]5(C)[C@H]4CC[C@]3(C)C2=O)CC1 | > 100 | > 100 µM | > 100 | > 100 µM | > 100 µM | > 100 µM | > 100 µM | > 100 µM | > 100 | > 100 µM |  |  |  |  |  |  |  |  | 
18 | O=C1/C(=C/c2ccc(O)cc2)CC/C1=C\c1ccc(O)cc1 | > 100 | > 100 µM | > 100 | > 100 µM | > 100 µM | > 100 µM | > 100 µM | > 100 µM | > 100 | > 100 µM |  |  |  |  |  |  |  |  | 
19 | Cc1c2cnccc2c(C)c2c1c1ccccc1n2CCCN | 2.85 | 0.402 µM and 0.569 µM | 0.439 | 1.18 µM and 0.482 µM | 0.335 µM and 0.22 µM | 1.84 µM and 0.833 µM | 1.71 µM and 0.874 µM | 1.44 µM and 2.17 µM | 1.83 | 1.88 µM and 0.225 µM | 0.163 |  | 0.165 | 0.113 µM and 0.0472 µM | 0.721 µM and 0.251 µM | 0.196 | 1.01 |  | 0.0685
20 | C=C(C1=CC(=O)C(C)(C)O1)[C@@H]1CC=C([C@@H]2CC[C@H]3[C@@]2(C)CC[C@H]2C(C)(C)C(=O)[C@H](O)C[C@]32C)[C@H](O)O1 | 21.6 | 3.45 µM | 4.74 | 12.6 µM | 31.6 µM | 2.4 µM | 28 µM | 24.1 µM | 2.64 | 2.88 µM |  |  |  |  |  |  |  |  | 
21 | C=C1c2nc3ccccc3n2C=C(c2ccccc2)N1c1ccc([N+](=O)[O-])cc1 | 46.4 | > 100 µM | 14.2 | 38.5 µM | 6.6 µM | 60.2 µM | 40.7 µM | 40.8 µM | 22.1 | 16 µM |  |  |  |  |  |  |  |  | 
22 | CCc1ccc(CCN2CCCCC2)nc1 | > 100 | > 100 µM | > 100 | > 100 µM | > 100 µM | > 100 µM | > 100 µM | > 100 µM | > 100 | > 100 µM |  |  |  |  |  |  |  |  | 
23 | Cc1ccccc1-n1c(=O)c2ncn(CCCl)c2n(-c2ccccc2C)c1=S | > 100 | > 100 µM | > 100 | > 100 µM | > 100 µM | > 100 µM | > 100 µM | > 100 µM | > 100 | > 100 µM |  |  |  |  |  |  |  |  | 
24 | COC(=O)C1CCC(=O)N1C(c1ccccc1)c1ccc(OC)c(OC)c1 (stereo not given) | > 100 | > 100 µM | > 100 | > 100 µM | > 100 µM | > 100 µM | > 100 µM | > 100 µM | > 100 | > 100 µM |  |  |  |  |  |  |  |  | 
25 | CCOc1cc2c(cc1O)/C(=N\OC)C[C@@H]1[C@@H]2CC[C@]2(C)[C@@H](O)CC[C@@H]12 | 40.9 | 16.7 µM | 44.7 | > 39.2 µM | 37.3 µM | 2.29 µM | > 100 µM | 12.6 µM | > 100 | > 58.5 µM |  |  |  |  |  |  |  |  | 
26 | CC[C@@]1(O)C(=O)OCc2c1cc1n(c2=O)Cc2c-1nc1ccccc1c2/C=N\NC(=O)CN | > 95.4 | 1.36 µM | > 100 | 1.04 µM | 4.66 µM | > 91 µM | > 100 µM | 1.88 µM | > 100 | 5.38 µM |  |  |  |  |  |  |  |  | 
27 | CCOC(=O)c1c2ccccc2n2c(N)c(C(N)=O)nnc12 | 89.9 | > 100 µM | 88.6 | 66.2 µM | > 100 µM | > 100 µM | > 100 µM | > 100 µM | 40.5 | > 100 µM |  |  |  |  |  |  |  |  | 
28 | CC(C)c1ccc(/C=C2/C=C(c3ccc4ccccc4c3)OC2=O)cc1 | > 100 | > 100 µM | > 100 | > 100 µM | > 100 µM | > 100 µM | > 100 µM | 29 µM | > 100 | > 100 µM |  |  |  |  |  |  |  |  | 
29 | COc1ccc(C2c3cc4c(cc3OC(NNS(=O)(=O)c3ccc(C)cc3)C2C)OCO4)cc1 (stereo not given) | > 100 | > 100 µM | > 100 | > 100 µM | > 100 µM | > 100 µM | > 100 µM | > 100 µM | > 100 | > 100 µM |  |  |  |  |  |  |  |  | 
30 | CC1=CC2C(O1)C1C(=O)C=CC(=O)C1=CC2[N+](=O)[O-] (stereo not given) | 29.6 | > 52.3 µM | 38.9 | 48.3 µM | 36.4 µM | 30.7 µM | 63.3 µM | 38.2 µM | 30.6 | 10.4 µM |  |  |  |  |  |  |  |  | 
31 | C(/c1ccco1)=c1/nc(-c2ccccc2)n2c1nc1ccccc12 | 94.4 | > 100 µM | > 100 | > 100 µM | > 100 µM | > 100 µM | > 100 µM | > 100 µM | > 100 | > 100 µM |  |  |  |  |  |  |  |  | 
32 | CC(C)CC(=O)OC[n+]1ccc(-c2c(COC(=O)NC(C)C)c(COC(=O)NC(C)C)c3n2CCC3)cc1 | > 100 | > 100 µM | > 100 | > 100 µM | > 100 µM | > 100 µM | > 100 µM | > 100 µM | > 100 | > 100 µM |  |  |  |  |  |  |  |  | 
